Reference: patent US4330529A, “Antibacterial composition” (Fujisawa Pharmaceutical Co., Ltd., priority 1979, dated 1982)

What was measured:
Assay in all cases: MIC and FIC, Nutrient agar (Tests 2, 3)
Assay type in all cases: cell-based
[1] = system: Serratia marcescens 1421-4; settings: Serratia marcescens, 14214, 20 h
[2] = system: Staphylococcus epidermidis 1601-1; settings: 16011, S. epidermidis 1601-1, 20 h
Method: (§1) After the incubation was carried out at 37° C. for 20 hours, MIC values were determined.

[3] = system: Proteus mirabilis 1432-75; settings: Proteus mirabilis, 143275, 20 h
[4] = system: Enterobacter cloacae 1401-4; settings: Enterobacter cloacae, 14014; E. cloacae 1401-4; 20 h; read-out: MIC
[5] = system: Salmonella typhimurium 1406; settings: Salmonella enterica, TYPHIMURIUM, 20 h
[6] = system: Klebsiella pneumoniae NCTC 418; settings: NCTC418, K. pneumoniae NCTC 418, 20 h
Method: as §1

For `CC1(C)S[C@@H]2[C@H](NC(=O)C(C(=O)O)c3ccsc3)C(=O)N2[C@H]1C(=O)O` (stereo partly drawn) [B (Table 4), ticarcillin], which MIC [1] is on record?
Its MIC is 25 µg/mL.

And the MIC [2]?
Its MIC is 3.13 µg/mL.

What about the MIC [3] of the same compound?
Its MIC is 0.78 µg/mL.

And the MIC [4]?
Its MIC is 50 µg/mL.

What about the MIC [5] of the same compound?
The MIC was 1.56 µg/mL.

And the MIC [6]?
Its MIC is 100 µg/mL.
